System: 922993-354-T-J3-PDC complex spheroid viability
Experiment: Anticancer human tumor 922993-354-T-J3-PDC patient-derived endometrial carcinoma cell line growth inhibition [POLQ]
Settings: for IC50: curve of first compound; for viability, T/C: stronger effect = lower value
In short: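 Three-cell-type spheroids modelling solid tumor plus stroma served as the readout system; POL inhibitors were tested individually and in combination, concentration ranges set by clinical Cmax where known.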

[1] = second compound 0.0316 µM, first compound 0.0316 µM
[2] = second compound 0.0316 µM, first compound 0.1 µM
[3] = second compound 0.0316 µM, first compound 0.316 µM
[4] = second compound 0.0316 µM, first compound 1 µM
[5] = second compound 0.0316 µM, first compound 3.16 µM
[6] = second compound 0.0316 µM, first compound 10 µM
[7] = second compound 0.1 µM, first compound 0.0316 µM
[8] = second compound 0.1 µM, first compound 0.1 µM
[9] = second compound 0.1 µM, first compound 0.316 µM
[10] = second compound 0.1 µM, first compound 1 µM
[11] = second compound 0.1 µM, first compound 3.16 µM
[12] = second compound 0.1 µM, first compound 10 µM
[13] = second compound 0.316 µM, first compound 0.0316 µM
[14] = second compound 0.316 µM, first compound 0.1 µM
[15] = second compound 0.316 µM, first compound 0.316 µM
[16] = second compound 0.316 µM, first compound 1 µM
[17] = second compound 0.316 µM, first compound 3.16 µM
[18] = second compound 0.316 µM, first compound 10 µM
[19] = second compound 1 µM, first compound 0.0316 µM
[20] = second compound 1 µM, first compound 0.1 µM
[21] = second compound 1 µM, first compound 0.316 µM
[22] = second compound 1 µM, first compound 1 µM
[23] = second compound 1 µM, first compound 3.16 µM
[24] = second compound 1 µM, first compound 10 µM
[25] = second compound 3.16 µM, first compound 0.0316 µM
[26] = second compound 3.16 µM, first compound 0.1 µM
[27] = second compound 3.16 µM, first compound 0.316 µM
[28] = second compound 3.16 µM, first compound 1 µM
[29] = second compound 3.16 µM, first compound 3.16 µM
[30] = second compound 3.16 µM, first compound 10 µM
[31] = second compound 10 µM, first compound 0.0316 µM
[32] = second compound 10 µM, first compound 0.1 µM
[33] = second compound 10 µM, first compound 0.316 µM
[34] = second compound 10 µM, first compound 1 µM
[35] = second compound 10 µM, first compound 3.16 µM
[36] = second compound 10 µM, first compound 10 µM
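Further: spheroids exposed to the agents for one week.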
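Wherever viability, T/C is given: 100% = DMSO vehicle control wells.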

For `CCCS(=O)(=O)Nc1ccc(F)c(C(=O)c2c[nH]c3ncc(-c4ccc(Cl)cc4)cc23)c1F` + Cc1cccc(N(C)C(=O)C2C(O)CCN2c2nc(C)cc(C(F)(F)F)c2C#N)c1, the IC50 (second compound 0.0316 µM) was > 10 µM, the IC50 (second compound 0.1 µM) was > 10 µM and the IC50 (second compound 0.316 µM) was > 10 µM. The IC50 (second compound 1 µM) was > 10 µM, the IC50 (second compound 3.16 µM) was > 10 µM and the IC50 (second compound 10 µM) was > 10 µM. The viability, T/C [1] was 103%, the viability, T/C [2] was 99.5% and the viability, T/C [3] was 103%. It also gave a viability, T/C [4] of 98.1%, a viability, T/C [5] of 106% and a viability, T/C [6] of 97.5%. The viability, T/C [7] was 101%, the viability, T/C [8] was 102% and the viability, T/C [9] was 103%. It also gave a viability, T/C [10] of 100%, a viability, T/C [11] of 102% and a viability, T/C [12] of 90.1%. The viability, T/C [13] was 104%, the viability, T/C [14] was 101% and the viability, T/C [15] was 105%. It also gave a viability, T/C [16] of 104%, a viability, T/C [17] of 103% and a viability, T/C [18] of 95.8%. For the same compound, the viability, T/C [19] was 102%, the viability, T/C [20] was 99.8% and the viability, T/C [21] was 100%. For the same compound, the viability, T/C [22] was 103%, the viability, T/C [23] was 105% and the viability, T/C [24] was 95%. The viability, T/C [25] was 102%, the viability, T/C [26] was 103% and the viability, T/C [27] was 101%. It also gave a viability, T/C [28] of 97.7%, a viability, T/C [29] of 107% and a viability, T/C [30] of 94.5%. For the same compound, the viability, T/C [31] was 98.6%, the viability, T/C [32] was 103% and the viability, T/C [33] was 104%. The viability, T/C [34] was 100%, the viability, T/C [35] was 108% and the viability, T/C [36] was 93.2%.
With `C=CCn1c(=O)c2cnc(Nc3ccc(N4CCN(C)CC4)cc3)nc2n1-c1cccc(C(C)(C)O)n1` + COC1C(OC(N)=O)C(O)C(Oc2ccc3c(O)c(NC(=O)c4ccc(O)c(CC=C(C)C)c4)c(=O)oc3c2C)OC1(C)C the IC50 (second compound 0.0316 µM) was > 1 µM, the IC50 (second compound 0.1 µM) was > 1 µM and the IC50 (second compound 0.316 µM) was > 1 µM. The IC50 (second compound 1 µM) was > 1 µM, the IC50 (second compound 3.16 µM) was > 1 µM and the IC50 (second compound 10 µM) was > 1 µM. It also gave a viability, T/C (second compound 0.0316 µM, first compound 0.00316 µM) of 91.7%, a viability, T/C (second compound 0.0316 µM, first compound 0.01 µM) of 105% and a viability, T/C [1] of 97.4%. The viability, T/C [2] was 101%, the viability, T/C [3] was 118% and the viability, T/C [4] was 94.9%. For the same compound, the viability, T/C (second compound 0.1 µM, first compound 0.00316 µM) was 94%, the viability, T/C (second compound 0.1 µM, first compound 0.01 µM) was 96.3% and the viability, T/C [7] was 101%. The viability, T/C [8] was 102%, the viability, T/C [9] was 106% and the viability, T/C [10] was 103%. For the same compound, the viability, T/C (second compound 0.316 µM, first compound 0.00316 µM) was 101%, the viability, T/C (second compound 0.316 µM, first compound 0.01 µM) was 104% and the viability, T/C [13] was 85%. It also gave a viability, T/C [14] of 95.4%, a viability, T/C [15] of 102% and a viability, T/C [16] of 84.9%. The viability, T/C (second compound 1 µM, first compound 0.00316 µM) was 108%, the viability, T/C (second compound 1 µM, first compound 0.01 µM) was 95.7% and the viability, T/C [19] was 88.9%. For the same compound, the viability, T/C [20] was 96.2%, the viability, T/C [21] was 100% and the viability, T/C [22] was 93.4%. The viability, T/C (second compound 3.16 µM, first compound 0.00316 µM) was 94.4%, the viability, T/C (second compound 3.16 µM, first compound 0.01 µM) was 97.7% and the viability, T/C [25] was 101%. For the same compound, the viability, T/C [26] was 91.1%, the viability, T/C [27] was 102% and the viability, T/C [28] was 91.3%. It also gave a viability, T/C (second compound 10 µM, first compound 0.00316 µM) of 94.6%, a viability, T/C (second compound 10 µM, first compound 0.01 µM) of 69.8% and a viability, T/C [31] of 78%. For the same compound, the viability, T/C [32] was 88.8%, the viability, T/C [33] was 106% and the viability, T/C [34] was 81.2%.
`CCc1cc2c(N3CCc4c(cc(Cn5ccnc5)cc4-c4cn(C)nc4C(F)(F)F)C3=O)ccnc2c(OC)n1` + COC1C(OC(N)=O)C(O)C(Oc2ccc3c(O)c(NC(=O)c4ccc(O)c(CC=C(C)C)c4)c(=O)oc3c2C)OC1(C)C was tested, and the IC50 (second compound 0.0316 µM) was > 10 µM, the IC50 (second compound 0.1 µM) was > 10 µM and the IC50 (second compound 0.316 µM) was > 10 µM. For the same compound, the IC50 (second compound 1 µM) was > 10 µM, the IC50 (second compound 3.16 µM) was > 10 µM and the IC50 (second compound 10 µM) was > 10 µM. The viability, T/C [1] was 104%, the viability, T/C [2] was 110% and the viability, T/C [3] was 101%. It also gave a viability, T/C [4] of 102%, a viability, T/C [5] of 96.2% and a viability, T/C [6] of 71.5%. It also gave a viability, T/C [7] of 108%, a viability, T/C [8] of 102% and a viability, T/C [9] of 97.9%. For the same compound, the viability, T/C [10] was 109%, the viability, T/C [11] was 97.1% and the viability, T/C [12] was 79.8%. For the same compound, the viability, T/C [13] was 104%, the viability, T/C [14] was 101% and the viability, T/C [15] was 102%. For the same compound, the viability, T/C [16] was 97.3%, the viability, T/C [17] was 86.9% and the viability, T/C [18] was 79.6%. For the same compound, the viability, T/C [19] was 97.4%, the viability, T/C [20] was 101% and the viability, T/C [21] was 104%. The viability, T/C [22] was 101%, the viability, T/C [23] was 90% and the viability, T/C [24] was 76.6%. The viability, T/C [25] was 88.1%, the viability, T/C [26] was 96.5% and the viability, T/C [27] was 100%. The viability, T/C [28] was 85.2%, the viability, T/C [29] was 89.2% and the viability, T/C [30] was 70.4%. It also gave a viability, T/C [31] of 84%, a viability, T/C [32] of 82.8% and a viability, T/C [33] of 105%. It also gave a viability, T/C [34] of 91%, a viability, T/C [35] of 93.9% and a viability, T/C [36] of 68.3%.
